# Test results: paper PMC11372076, “A dual inhibitor of PIP5K1C and PIKfyve prevents SARS-CoV-2 entry into cells” (Experimental & Molecular Medicine, 2024)
# Columns and labels:
# Test in all cases: SelectScreen Kinase Profiling Service (PIPK profiling)
# Type in all cases: biochemical
# PIK3C3 (hVPS34) = conditions: 1 μM UNI418; [ATP] 100 μM
# Source text: (§1) UNI418 has a core structure consisting of 4-quinazolinamine (Fig. 1a, green), which is often found in kinase inhibitors. […] The phosphoinositide (PI) system is a crucial regulatory mechanism in membrane trafficking and is tightly regulated through phosphorylation cascades by multiple phosphatidylinositol phosphate kinases (PIPKs)[30]. We hypothesized that UNI418 may inhibit PIPK(s) and performed PIPK profiling analysis. […] To test whether UNI418 interacts with PIP5K1C and PIKfyve, we performed a CETSA, which determines the characteristics of protein stabilization upon ligand binding to the target protein[31]. UNI418- or DMSO-treated cell lysates were incubated at different temperatures, and the presence of the target protein in the soluble fraction was analyzed by Western blotting (Fig. 1c).
# (§2) Fig. 1 UNI418 specifically targets PIP5K1 and PIKfyve. a Chemical structure of UNI418. The 4-quinazolinamine core is highlighted in green. b Table of the kinase profiling analysis. Inhibition of several kinases was determined at a 1 μM concentration of UNI418 and analyzed by the SelectScreen Kinase Profiling Service (Thermo Fisher Scientific). c Cellular thermal shift assay. Ectopically expressed GFP-PIP5K1C and GFP-PIKfyve were heated to the indicated temperatures with/without UNI418, and the presence of protein in the soluble fraction was analyzed by Western blot analysis. TEXT PRINTED IN THE PICTURE: (b) UNI418: % Inhibition (mean): 11 ([ATP] Tested (μM): 10; Kinase Tested: PI4K2A (PI4K2 alpha)); % Inhibition (mean): 4 ([ATP] Tested (μM): 10; Kinase Tested: PI4K2B (PI4K2 beta)); % Inhibition (mean): -6 ([ATP] Tested (μM): 10; Kinase Tested: PI4KA (PI4K alpha)); % Inhibition (mean): 48 ([ATP] Tested (μM): Km app; Kinase Tested: PI4KB (PI4K beta)); % Inhibition (mean): 20 ([ATP] Tested (μM): 10; Kinase Tested: PIK3C2B (PI3K-C2 beta)); % Inhibition (mean): 22 ([ATP] Tested (μM): 10; Kinase Tested: PIK3C2G (PI3K-C2 gamma)); % Inhibition (mean): 4 ([ATP] Tested (μM): 100; Kinase Tested: PIK3C3 (hVPS34)); % Inhibition (mean): 8 ([ATP] Tested (μM): 10; Kinase Tested: PIK3CA/PIK3R3 (p110 alpha/p55 gamma)); % Inhibition (mean): 7 ([ATP] Tested (μM): 10; Kinase Tested: PIK3CB/PIK3R2 (p110 beta/p85 beta)); % Inhibition (mean): 9 ([ATP] Tested (μM): 10; Kinase Tested: PIP4K2A); % Inhibition (mean): 67 ([ATP] Tested (μM): 10; Kinase Tested: PIP5K1A); % Inhibition (mean): 93 ([ATP] Tested (μM): 10; Kinase Tested: PIP5K1B); % Inhibition (mean): 93 ([ATP] Tested (μM): 10; Kinase Tested: PIP5K1C); % Inhibition (mean): 100 ([ATP] Tested (μM): 100; Kinase Tested: PIKFYVE) | (b) Apilimod: % Inhibition (mean): 100 ([ATP] Tested (μM): 100; Kinase Tested: PIKFYVE) […]
# PIP4K2A = conditions: 1 μM UNI418; [ATP] 10 μM
# Source text: as §1, §2
# [1] = tested on: PIK3CB/PIK3R2 (p110 beta/p85 beta); conditions: 1 μM UNI418; [ATP] 10 μM
# Source text: as §1, §2
# PI4K2B (PI4K2 beta) = conditions: 1 μM UNI418; [ATP] 10 μM
# Source text: as §1, §2
# PI4KB (PI4K beta) = conditions: 1 μM UNI418; [ATP] Km app
# Source text: as §1, §2
# PIK3C2B (PI3K-C2 beta) = conditions: 1 μM UNI418; [ATP] 10 μM
# Source text: as §1, §2
# [2] = tested on: PIK3CA/PIK3R3 (p110 alpha/p55 gamma); conditions: 1 μM UNI418; [ATP] 10 μM
# Source text: as §1, §2
# PI4KA (PI4K alpha) = conditions: 1 μM UNI418; [ATP] 10 μM
# Source text: as §1, §2
# PI4K2A (PI4K2 alpha) = conditions: 1 μM UNI418; [ATP] 10 μM
# Source text: as §1, §2
# PIK3C2G (PI3K-C2 gamma) = conditions: 1 μM UNI418; [ATP] 10 μM
# Source text: as §1, §2
structure (smiles),measurement,setting,value
"c1ccc(-c2cc(Nc3nc(-c4ccncc4)nc4ccccc34)n[nH]2)cc1 [UNI418, N -(5-phenyl-1 H -pyrazol-3-yl)-2-(4-pyridinyl)-4-quinazolinamine]",% Inhibition (mean),PIK3C3 (hVPS34),4%
same,% Inhibition (mean),PIP4K2A,9%
same,% Inhibition (mean),[1],7%
same,% Inhibition (mean),PI4K2B (PI4K2 beta),4%
same,% Inhibition (mean),PI4KB (PI4K beta),48%
same,% Inhibition (mean),PIK3C2B (PI3K-C2 beta),20%
same,% Inhibition (mean),[2],8%
same,% Inhibition (mean),PI4KA (PI4K alpha),-6%
same,% Inhibition (mean),PI4K2A (PI4K2 alpha),11%
same,% Inhibition (mean),PIK3C2G (PI3K-C2 gamma),22%
